Reference: patent publication US20260176283A1, “IONIZABLE LIPIDS WITH LINEAR HEAD GROUPS” (Beam Therapeutics Inc., priority 2023, published 2026)
Several values for one entry are separate records, joined by “and”; a condition that tells them apart may be missing. Identical values can stand only once.

Columns and labels:
ALAS1 target site = test: In vivo base editing with ABE mRNA and sgRNA targeting ALAS1; set-up: species or system Balb/c mice; details: for Quadrecept Editing A->G (%): formulation ratio 50:38.5:1.5:10, quadricep muscle; for Liver Editing A->G (%): 4 days after dosing
Method: (§1) Lipid nanoparticle components are dissolved in 100% ethanol at specified lipid component molar ratios. mRNA encoding an adenine base editor and a chemically-modified sgRNA is dissolved at a mass ratio of 1:1 in 10 mM citrate, 100 mM NaCl, pH 4.0, resulting in a concentration of NA cargo of approximately 0.22 mg/mL. LNP preparations are formulated with molar ratios of either 50% Ionizable Lipid: 38.5% Cholesterol: 1.5% PEG2000-DMG: 10% DSPC or 47.5% Ionizable Lipid: 40% Cholesterol: 2.5% PEG2000-DMG: 10% DSPC both at a total lipid to NA molar ratio of 6.
(§2) LNP preparations are formed by microfluidic mixing of the lipid and NA solutions using a Precision Nanosystems NanoAssemblr Ignite Instrument, according to the manufacturer's protocol. A 3:1 ratio of aqueous to organic solvent is maintained during mixing using differential flow rates. After mixing, LNP preparations are collected, diluted in PBS (approximately 2:1 v/v), and further buffer exchange is conducted using dialysis in PBS at 4° C. for 8 to 24 hours against a 20 kDa filter. After this initial dialysis, each individual LNP preparation is characterized via dynamic light scattering (DLS) to measure size and polydispersity. pKa of a subpopulation of LNP preparations is measured via TNS assay. After dialysis, LNP preparations are sterile filtered using 0.22 micron sterile filter and stored at 4° C. for further use. In some embodiments, LNP preparations may be concentrated using 100 kDa Amicon filters per manufacturer's protocol.
Male Balb/C mice aged approximately 8-12 weeks are used in the experiments described herein. Each mouse is temporarily restrained, and LNP preparations are administered IV via tail vein injection. Age-matched mice are also used to administer vehicle (1×PBS) via tail vein injection as a control. Four to six days post-dose, tissues including liver, spleen, heart and muscle are collected (only liver and muscle (quardracept) are reported). Genomic DNA is isolated and fragmented and adapter-ligated using the Nextera DNA Flex Library Prep Kit (Illumina) using the 96-well plate Nextera indexing primers (Illumina), according to the manufacturer's instructions. Library size and concentration is confirmed by Fragment Analyzer (Agilent) and sent to Novogene for whole genome sequencing using an Illumina HiSeq.
For base editing, mRNA encoding an adenine base editor (ABE) and a guide RNA (sgRNA) targeting ALAS1 at 1:1 (mass ratio) are coencapsulated in LNP preparations as described herein. LNP preparations are administrated into Balb/c mice through tail vein injections at concentrations ranging from 0.05 to 3.0 mg/kg total RNA. At 4 days after dosing, mice are euthanized and liver, spleen and bone barrow are harvested. Base editing is determined by performing targeted deep sequencing analysis at the ALAS1 target site using extracted genomic DNA.

[1] = LNP characterization of base editor LNP preparations (DLS diameter, PDI, encapsulation efficiency); format: physicochemical
Method: as §1, §2
DLS—LNP preparation hydrodynamic diameter and polydispersity index (PDI) is measured using high throughput dynamic light scattering (DLS) (DynaPro plate reader II, Wyatt). LNP preparations are diluted 1×PBS to an appropriate concentration and analyzed.
Concentration of NA is determined by Qubit microRNA kit (for siRNA) or HS RNA kit (for mRNA) per manufacturer's instructions. Encapsulation efficiency is determined by measuring unlysed and lysed LNPs.

[2] = LNP preparation characterization (encapsulation efficiency, DLS size and polydispersity), barcoded screen LNPs; format: physicochemical; details: LNP 47.5% ionizable lipid: 40% cholesterol: 2.5% PEG-2000 DMG: 10% DPSC, N/P 4.5-6; for AVG PDI / AVG Z Dia (nm): DLS
Method: Lipid nanoparticle components were dissolved in 100% ethanol at specified lipid component molar ratios. Nucleic acid (NA) cargo was dissolved in 10 mM citrate, 100 mM NaCl, pH 4.0, resulting in a concentration of NA cargo of approximately 0.22 mg/mL. In some embodiments, NA cargos included both a functional NA and a reporter barcode mixed at mass ratios of 1:10 to 10:1 functional NA to barcode. As described herein, a NA can be a siRNA, an anti-sense, an expressing DNA, or mRNA.
LNP preparations were prepared with 47.5% Ionizable Lipid (e.g., a compound provided herein): 40% cholesterol: 2.5% PEG-2000 DMG: 10% DPSC and an N/P ratio range of 4.5-6. LNP preparations were formed by microfluidic mixing of the lipid and NA solutions using Precision Nanosystems NanoAssemblr Spark or Benchtop series Instruments, according to the manufacturer's protocol.
A ratio of aqueous to organic solvent of approximately 2:1 or 3:1 was maintained during mixing using differential flow rates. After mixing, LNP preparations were collected, diluted in phosphate buffer saline (PBS) or Tris-buffered saline (TBS) (approximately 1:1 v/v). Further buffer exchange was conducted using dialysis in PBS or TBS at 4° C. for 4 to 24 hours against a 20 kDa filter. After this initial dialysis, each individual LNP preparation may be characterized via dynamic light scattering (DLS) to measure the size (e.g., diameter) and polydispersity. LNP preparations falling within specific diameter and polydispersity ranges were pooled, and further dialyzed against PBS or TBS at 4° C. for 1 to 4 hours against a 100 kDa dialysis cassette. After the second dialysis, LNP preparations were sterile filtered using 0.22 μm filter and stored at 4° C. for further use.

[3] = Table D LNPs, formulation ratio 50:38.5:1.5:10, ABE mRNA/ALAS1 sgRNA
[4] = Table C LNPs, formulation ratio 47.5:40:2.5:10, ABE mRNA/ALAS1 sgRNA
[5] = dose 3 MPK IV, formulation ratio 50:38.5:1.5:10, liver

Row | Structure (SMILES) | Quadrecept Editing A->G (%) (ALAS1 target site; dose 3 MPK IV) | Diameter (nm) [1, 3] | EE (%) [1, 3] | PDI (%) [1, 3] | Diameter (nm) [1, 4] | EE (%) [1, 4] | PDI (%) [1, 4] | AVG EE(%) [2] | AVG PDI [2] | AVG Z Dia (nm) [2] | Liver Editing A->G (%) (ALAS1 target site; [5]) | Liver Editing A->G (%) (ALAS1 target site; dose 0.05 MPK IV, formulation ratio 47.5:40:2.5:10, liver)
1 | CC/C=C\CCCC(CCC/C=C\CC)OC(=O)CCCCCCC(=O)OCC(COC(=O)CCCCCCC(=O)OC(CCC/C=C\CC)CCC/C=C\CC)COC(=O)CCCN1CCCC1 [Compound (13), 1-{2-[({8-Oxo-8-[(3Z,12Z)-pentadeca-3,12-dien-8-yloxy]octanoyl}oxy)methyl]-3-{[4-(pyrrolidin-1-yl)butanoyl]oxy}propyl} 8-(3Z,12Z)-pentadeca-3,12-dien-8-yl octanedioate] | 0.37% | 79.7 nm | 96.75% | 27.9% | – | – | – | – | – | – | – | –
2 | C=CCCCC(CCCC=C)COC(=O)CCCCC(=O)OCC(COC(=O)CCCCC(=O)OCC(CCCC=C)CCCC=C)COC(=O)CCCN1CCCC1 [Compound (19), 1-(2-{[(6-Oxo-6-{[2-(pent-4-en-1-yl)hept-6-en-1-yl]oxy}hexanoyl)oxy]methyl}-3-{[4-(pyrrolidin-1-yl)butanoyl]oxy}propyl) 6-[2-(pent-4-en-1-yl)hept-6-en-1-yl] hexanedioate] | – | – | – | – | 123 nm | 57.3% | 9.9% | 98.2% | 0.08 | 130.75 nm | – | –
3 | C=CCCCCCC(CCCCCC=C)OC(=O)CCCCCC(=O)OCCCC(CCCOC(=O)CCCCCC(=O)OC(CCCCCC=C)CCCCCC=C)OC(=O)CCCN1CCCC1 [Compound (22), O1-[7-[7-(1-hept-6-enyloct-7-enoxy)-7-oxo-heptanoyl]oxy-4-(4-pyrrolidin-1-ylbutanoyloxy)heptyl] O7-(1-hept-6-enyloct-7-enyl) heptanedioate] | – | – | – | – | 90.8 nm | 88.09% | 6.8% | 88.1% | 0.07 | 90.80 nm | – | –
4 | C=CCCCCCC(CCCCCC=C)OC(=O)CCCCC(=O)OCC(COC(=O)CCCCC(=O)OC(CCCCCC=C)CCCCCC=C)COC(=O)CCCN1CCCC1 [Compound (11), 1-[2-({[6-Oxo-6-(pentadeca-1,14-dien-8-yloxy)hexanoyl]oxy}methyl)-3-{[4-(pyrrolidin-1-yl)butanoyl]oxy}propyl]6-pentadeca-1,14-dien-8-yl hexanedioate] | 0.11% | 83.2 nm | 74.33% | 18.7% | – | – | – | – | – | – | 17.19% | –
5 | C=CCCCCCC(CCCCCC=C)OC(=O)CCCCCCC(=O)OCC(COC(=O)CCCCCCC(=O)OC(CCCCCC=C)CCCCCC=C)COC(=O)CCCN1CCCC1 [Compound (10), 1-[2-({[8-Oxo-8-(pentadeca-1,14-dien-8-yloxy)octanoyl]oxy}methyl)-3-{[4-(pyrrolidin-1-yl)butanoyl]oxy}propyl] 8-pentadeca-1,14-dien-8-yl octanedioate] | 3.6% | 71.6 nm | 98.66% | 11% | – | – | – | – | – | – | 75.62% | –
6 | O=C(CCCCC(=O)OC(CCCCCC(F)(F)F)CCCCCC(F)(F)F)OCC(COC(=O)CCCCC(=O)OC(CCCCCC(F)(F)F)CCCCCC(F)(F)F)COC(=O)CCCN1CCCC1 [Compound (20), 1-(1,1,1,13,13,13-Hexafluorotridecan-7-yl)6-{2-[({6-[(1,1,1,13,13,13-hexafluorotridecan-7-yl)oxy]-6-oxohexanoyl}oxy)methyl]-3-{[4-(pyrrolidin-1-yl)butanoyl]oxy}propyl} hexanedioate] | – | – | – | – | 153.73 nm | 25% | 8.2% | – | – | – | – | –
7 | C=CCCCC(CCCC=C)COC(=O)CCCCCCC(=O)OCC(COC(=O)CCCCCCC(=O)OCC(CCCC=C)CCCC=C)COC(=O)CCCN1CCCC1 [Compound (15), 1-(2-1[(8-oxo-8-{[2-(pent-4-en-1-yl)hept-6-en-1-yl]oxy}octanoyl)oxy]methyl}-3-{[4-(pyrrolidin-1-yl)butanoyl]oxy}propyl) 8-[2-(pent-4-en-1-yl)hept-6-en-1-yl] octanedioate] | 4.05% | 96.6 nm | 94.81% | 11.6% | – | – | – | – | – | – | – | –
8 | CC/C=C\CCCC(CCC/C=C\CC)OC(=O)CCCCCC(=O)OCC(COC(=O)CCCCCC(=O)OC(CCC/C=C\CC)CCC/C=C\CC)COC(=O)CCCN1CCCC1 [Compound (14), 1-{2-[({7-Oxo-7-[(3Z,12Z)-pentadeca-3,12-dien-8-yloxy]heptanoyl}oxy)methyl]-3-{[4-(pyrrolidin-1-yl)butanoyl]oxy}propyl} 7-(3Z,12Z)-pentadeca-3,12-dien-8-yl heptanedioate] | – | 74.2 nm and 87.2 nm and 88.8 nm and 111.4 nm and 90.2 nm and 83.6 nm | 98.94% and 98.27% and 98.68% and 98.67% and 97.86% and 97.95% | 11.6% and 9.6% and 11.5% and 8% and 11.4% and 10.2% | – | – | – | – | – | – | – | –
9 | CC/C=C\CCCC(CCC/C=C\CC)OC(=O)CCCCCC(=O)OCC(COC(=O)CCCCCC(=O)OC(CCC/C=C\CC)CCC/C=C\CC)COC(=O)NCCN1CCCC1 [Compound (28), 1-{2-[({7-oxo-7-[(3Z,12Z)-pentadeca-3,12-dien-8-yloxy]heptanoyl}oxy)methyl]-3-({[2-(pyrrolidin-1-yl)ethyl]carbamoyl}oxy)propyl}7-(3Z,12Z)-pentadeca-3,12-dien-8-ylheptanedioate] | – | – | – | – | 71.15 nm | 98.71% | 11.8% | – | – | – | – | 0.65%
10 | CC/C=C\CCCC(CCC/C=C\CC)COC(=O)CCCCC(=O)OCC(COC(=O)CCCCC(=O)OCC(CCC/C=C\CC)CCC/C=C\CC)COC(=O)CCCN1CCCC1 [Compound (24), 1-(6Z)-2-[(4Z)-Hept-4-en-1-yl]non-6-en-1-yl6-(2-{[(6-{[(6Z)-2-[(4Z)-hept-4-en-1-yl]non-6-en-1-yl]oxy}-6-oxohexanoyl)oxy]methyl}-3-{[4-(pyrrolidin-1-yl)butanoyl]oxy}propyl) hexanedioate] | – | – | – | – | – | – | – | 90.2% | 0.13 | 117.63 nm | – | –
